Source: BindingDB's records for patent US20240025884 (Dong-A St Co., 2024)

Biological target: eIF-2-alpha kinase GCN2 (Homo sapiens, UniProt Q9P2K8)
Assay: Biochemical Assay
Procedure: 384-well (Greiner #784075) (or 1536-well [Greiner #782075]) plates containing 60 nl (or 20 nl for 1536-well) of compound in 100% DMSO (10 concentrations serially diluted 3.16-fold) were prepared. Two copies of plates were used one for the GCN2 assay and a second for an artifact plate. Working reagents were prepared as follows reaction buffer: Tris pH 7.5 20 mM, MgCl2 5 mM, DTT 1 mM, Brij-35 0.005%, EGTA 0.5 mM in water; 2 enzyme solution: GCN2 (produced in-house) 1.6 nM in reaction buffer; 2 substrate solution: GFP-eIFS1 (Thermo Fisher Scientific, PV4809) 50 nM, ATP 0.2 mM, tRNA 0.4 mg/ml in reaction buffer; p-GFP-eIF2S1 (artifact) solution: p-GFP-eIFS1 (produced by incubation of 100 nM GFP-eIF2S1 in reaction buffer with 100 uM ATP and 1 nM PERK KD enzyme for 3 hr at room temperature) 2 nM in reaction buffer; 3 stop/antibody solution: p-GFP-EIF2S1 Th-Ab (Thermo Fisher Scientific, PV4816) 6 nM, AZ13933939 3 uM, BSA 3% in reaction buffer. Reagents were loaded onto a liquid dispenser (Certus FLEX, Trajan Scientific and Medical), and 3 ul (1 ul for 1536-well) of 2 enzyme solution, followed by 3 ul (1 ul for 1536-well) of 2 substrate solution was added to the plates. When small numbers of plates were processed, the enzyme solution was added first to all plates, then the valve used for the substrate solution was primed immediately prior to use. […]

Sequence of eIF-2-alpha kinase GCN2 (Q9P2K8 whole entry): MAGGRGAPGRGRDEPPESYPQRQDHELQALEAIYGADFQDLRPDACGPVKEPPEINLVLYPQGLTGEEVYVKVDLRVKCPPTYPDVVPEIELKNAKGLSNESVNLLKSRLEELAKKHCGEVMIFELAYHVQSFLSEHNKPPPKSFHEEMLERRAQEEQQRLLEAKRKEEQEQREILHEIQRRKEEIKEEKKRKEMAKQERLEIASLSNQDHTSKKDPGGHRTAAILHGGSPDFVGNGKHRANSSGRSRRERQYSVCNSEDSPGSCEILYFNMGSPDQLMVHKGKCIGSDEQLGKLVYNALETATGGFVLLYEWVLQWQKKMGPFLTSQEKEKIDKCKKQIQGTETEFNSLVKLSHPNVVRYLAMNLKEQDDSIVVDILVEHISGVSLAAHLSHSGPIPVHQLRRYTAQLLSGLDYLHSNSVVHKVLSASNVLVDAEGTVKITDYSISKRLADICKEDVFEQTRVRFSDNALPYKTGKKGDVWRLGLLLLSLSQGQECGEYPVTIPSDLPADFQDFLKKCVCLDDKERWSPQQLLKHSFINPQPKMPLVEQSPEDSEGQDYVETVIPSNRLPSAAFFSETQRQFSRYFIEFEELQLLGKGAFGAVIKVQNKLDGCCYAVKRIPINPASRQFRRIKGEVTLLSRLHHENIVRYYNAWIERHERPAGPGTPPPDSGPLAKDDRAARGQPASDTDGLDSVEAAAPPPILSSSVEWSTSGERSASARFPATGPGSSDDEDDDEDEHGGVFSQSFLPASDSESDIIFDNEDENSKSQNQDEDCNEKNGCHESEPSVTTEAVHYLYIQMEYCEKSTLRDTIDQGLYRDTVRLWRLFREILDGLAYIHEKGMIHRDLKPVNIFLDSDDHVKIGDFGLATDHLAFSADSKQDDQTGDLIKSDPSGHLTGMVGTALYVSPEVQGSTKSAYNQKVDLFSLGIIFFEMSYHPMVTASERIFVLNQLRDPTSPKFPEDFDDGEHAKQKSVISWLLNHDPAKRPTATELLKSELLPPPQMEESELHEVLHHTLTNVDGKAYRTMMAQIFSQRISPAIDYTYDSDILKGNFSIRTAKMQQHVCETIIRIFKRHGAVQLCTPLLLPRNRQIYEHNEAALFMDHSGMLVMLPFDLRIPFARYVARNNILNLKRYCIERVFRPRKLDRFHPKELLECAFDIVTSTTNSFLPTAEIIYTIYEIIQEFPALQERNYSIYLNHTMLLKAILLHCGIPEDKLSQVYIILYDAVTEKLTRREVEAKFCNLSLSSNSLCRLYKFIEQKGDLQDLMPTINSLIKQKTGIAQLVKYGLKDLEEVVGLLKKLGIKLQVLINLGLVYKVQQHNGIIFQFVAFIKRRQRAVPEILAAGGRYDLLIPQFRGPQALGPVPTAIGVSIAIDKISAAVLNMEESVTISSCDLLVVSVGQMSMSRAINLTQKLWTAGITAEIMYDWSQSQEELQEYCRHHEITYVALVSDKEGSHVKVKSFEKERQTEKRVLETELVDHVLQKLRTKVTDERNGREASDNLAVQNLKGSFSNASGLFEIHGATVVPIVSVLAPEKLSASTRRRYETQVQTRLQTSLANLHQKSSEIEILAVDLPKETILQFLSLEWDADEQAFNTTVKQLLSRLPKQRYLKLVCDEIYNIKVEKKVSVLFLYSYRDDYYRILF

IC50 [µM]	SMILES
< 0.01	Cc1cc(Nc2ncc(Cl)c(-c3c[nH]c4c(NC(=O)CN5CC[C@H](Oc6ccnc(NC7CC7)n6)C5)cccc34)n2)nn1C [US20240025884, Example 10]
< 0.01	Cc1cnc(Nc2cc(C)n(C)n2)nc1-c1c[nH]c2c(N3Cc4c(/C=C/C(=O)NC(C)C)cccc4C3=O)cccc12 [US20240025884, Example 370]
